{
  "source": "patent US20080280810A1",
  "about": "“PEPTIDES HAVING AFFINITY FOR BODY SURFACES” (priority 2006, published 2008)",
  "key": {"[1]": {"test": "Color retention after shampoo treatment, peptide as sealant with Acid Red 33 dye", "design": "species or system human", "details": "0.50 wt % Acid Red 33, peptide 0.25 wt %, 30 min contact, after one shampoo treatment; vs uncolored hair; larger = better color retention; dye alone 19.63", "protocol": "The peptides used in this Example were prepared as described in Examples 1-3. The color retention was quantified using a spectrophotometric measurement technique.\nA peptide given as SEQ ID NO:41, SEQ ID NO:42, or SEQ ID NO:43 (38 mg), produced via fermentation as described in Examples 1-3, was added to 15 g of an aqueous 0.50 wt % solution of Acid Red 33 (Abbey Color, Philadelphia, Pa.) and the solution was allowed to stir for 1 h. A natural white hair tress (1 cm wide, potted, International Hair Importers & Products Inc., Bellerose, N.Y.) was inserted into a 15 mm×125 mm test tube and 13 mL of the peptide/dye mixture was injected into the test tube. The hair tress was immersed in contact with the colorant solution for 30 min and the colorant solution was agitated using a magnetic stirrer. The tress was removed, allowed to drip dry, and then air dried for 30 min.\nThe hair tress was then subjected to a water rinse using copious amounts of deionized water, followed by a shampoo treatment with embrocation for 30 seconds. The shampoo treatment involved the application of Pantene Pro-V Sheer Volume shampoo (Proctor & Gamble, Cincinnati, Ohio) to the hair as follows. A quarter-sized drop of the shampoo was distributed evenly over the hair tress and then was massaged aggressively into the hair for 30 sec, after which the hair tress was rinsed with water to remove the shampoo. The hair tress was then dried at room temperature. The entire procedure described above was repeated without the addition of the hair-binding peptide to serve as a control.\nThe color intensity after the shampoo treatment was measured using an X-Rite® SP78™ Sphere Spectrophotometer (X-Rite, Inc., Grandville, Mich.), by placing the colored hair sample into the photosensor and calculating L*, a* and b* parameters representing the photometer response. An initial baseline L* value was measured for the uncolored hair and all measurements were the average of three individual determinations. Delta E values were calculated using equation 1 below: […]"}, "[2]": {"test": "Color retention after shampoo treatment, peptide as sealant with Basic Red 2 dye", "design": "species or system human", "details": "0.25 wt % Basic Red 2, peptide 0.25 wt %, 60 min contact, after 10 shampoo treatments; dye alone 29.70", "protocol": "The peptides used in this Example were prepared as described in Examples 1 and 2. The color retention was quantified using a spectrophotometric measurement technique. A peptide given as SEQ ID NO:41 or SEQ ID NO:42 (38 mg), produced via fermentation as described in Examples 1 and 2, was added to 15 g of an aqueous 0.25 wt % solution of Basic Red 2 (Abbey Color, Philadelphia, Pa.) and the solution was allowed to stir for 1 h. A natural white hair tress (1 cm wide, potted, International Hair Importers & Products Inc., Bellerose, N.Y.) was inserted into a 15 mm×125 mm test tube and 13 mL of the peptide/dye mixture was injected into the test tube. The hair tress was immersed in contact with the colorant solution for 60 min and the colorant solution was agitated using a magnetic stirrer. The tress was removed, allowed to drip dry, and then air dried for 30 min. The hair tress was then subjected to a water rinse using copious amounts of deionized water, followed by a shampoo treatment with embrocation for 30 seconds. The shampoo treatment involved the application of Pantene Pro-V Sheer Volume shampoo (Proctor & Gamble, Cincinnati, Ohio) to the hair as follows. […] The color intensity after the shampoo was measured as described in Examples 4-7."}, "[3]": {"test": "HPLC analysis of peptide uptake by hair", "format": "binding, human", "details": "no dye; for % Uptake time = 0 min / % Uptake time = 30 min / % Uptake time = 60 min: 20 mM Tris pH 7.2, 0.15 M NaCl, room temperature, peptide 0.1 mg/mL (IB5A, A5) or 0.05 mg/mL (HC 71, HC 74); for uptake onto hair compared with the same peptide without the charged groups (in words): HC 71 vs IB5, HC 74 vs A5", "protocol": "The purpose of this Example was to compare the speed of uptake by measuring the amount of various peptides including peptides of the invention bound to hair at different time points using a high performance liquid chromatography (HPLC) method. The peptides, HC 71, HC 74, IB5 (the hair-binding peptide sequence in HC 71), and A5 (the hair-binding peptide sequence in HC 74), were dissolved in 10 mL of 20 mM Tris, pH 7.2 buffer containing 0.15 M NaCl to give the peptide concentrations shown in Table 11. Natural white hair, 0.54 g, (International Hair Importers & Products Inc., Bellerose, N.Y.) was pre-equilibrated with 10 mL of Tris buffer for 30 min with mixing at room temperature. Then, the buffer was drained from the hair and 10 mL of one of the peptide solutions was added. The hair was incubated with the peptide solution at room temperature without mixing and samples were taken at 0, 30 and 60 min for HPLC analysis. For peptide uptake measurements in the presence of Acid Red 33 dye, the peptide solution was mixed 1:1 with an aqueous solution of the dye (0.5 wt %). Natural white hair (0.65 g) pre-wet with deionized water, was added to the peptide solutions and the solutions were incubated at room temperature without mixing. Samples were taken at time 0, 30, and 60 min for analysis by HPLC. The samples were analyzed using HPLC to determine the concentration of the peptide remaining in solution, and by difference, the amount of peptide taken up by the hair. The HPLC analysis was done using an Agilent liquid chromatograph (Agilent Technologies Inc., Wilmington, Del.) with a 5 μm Zorbax Eclipse XDB-C18 column (Agilent Technologies Inc.). The sample was diluted with distilled water containing 0.1% trifluoroacetic acid (typically a 10-fold dilution), and 5 to 50 μL was injected using a 100 μL injection loop. A solvent gradient elution was used with two solvents: Solvent A, consisting of acetonitrile with 0.1% aqueous trifluoracetic acid, and Solvent B, consisting of water with 0.1% trifluoroacetic acid. The gradient was from 10% acetonitrile to 80% acetonitrile at a rate of 1%/min over a period of 70 min. The flow rate was 1.25 mL/min. Detection was done with a photodiode array detector at 218 nm, 230 nm, and 278 nm."}},
  "data": [
    {"substance": "P-EQISGSLVAAPW-KRKRK-D (PEQISGSLVAAPWKRKRKD; Peptide having affinity for hair) [HC 74]", "values": [
      {"measurement": "Delta E", "setting": "[1]", "value": 28.68},
      {"measurement": "Delta E", "setting": "[2]", "value": 33.64},
      {"measurement": "% Uptake time = 0 min", "setting": "[3]", "value": 0, "unit": "%"},
      {"measurement": "% Uptake time = 30 min", "setting": "[3]", "value": 22, "unit": "%"},
      {"measurement": "% Uptake time = 60 min", "setting": "[3]", "value": 27, "unit": "%"},
      {"measurement": "uptake onto hair compared with the same peptide without the charged groups (in words)", "setting": "[3]", "value": "significantly faster uptake onto hair"}
    ]},
    {"substance": "P-TPPELLHGAPRS-KRKRK-D (PTPPELLHGAPRSKRKRKD; Peptide having affinity for hair) [HC 71]", "values": [
      {"measurement": "Delta E", "setting": "[1]", "value": 25.80},
      {"measurement": "Delta E", "setting": "[2]", "value": 32.36},
      {"measurement": "% Uptake time = 0 min", "setting": "[3]", "value": 0, "unit": "%"},
      {"measurement": "% Uptake time = 30 min", "setting": "[3]", "value": 69, "unit": "%"},
      {"measurement": "% Uptake time = 60 min", "setting": "[3]", "value": 75, "unit": "%"},
      {"measurement": "uptake onto hair compared with the same peptide without the charged groups (in words)", "setting": "[3]", "value": "significantly faster uptake onto hair"}
    ]}
  ]
}
